This passage reports IC50 results from patent publication US20210317092A1 (BAYER PHARMA AKTIENGESELLSCHAFT, priority 2016, published 2021).

Like-named read-outs stand apart in the source and are kept apart here.

For test [1], the target named is T1, native human Bradykinin B1 receptor (Homo sapiens, UniProt P46663).
T1 construct: which express native human Bradykinin B1 receptor after induction with human IL-10; Coriell Institute; host or cells: IMR-90 human foetal lung fibroblasts, cytokine-induced
T1 sequence (P46663 1-353): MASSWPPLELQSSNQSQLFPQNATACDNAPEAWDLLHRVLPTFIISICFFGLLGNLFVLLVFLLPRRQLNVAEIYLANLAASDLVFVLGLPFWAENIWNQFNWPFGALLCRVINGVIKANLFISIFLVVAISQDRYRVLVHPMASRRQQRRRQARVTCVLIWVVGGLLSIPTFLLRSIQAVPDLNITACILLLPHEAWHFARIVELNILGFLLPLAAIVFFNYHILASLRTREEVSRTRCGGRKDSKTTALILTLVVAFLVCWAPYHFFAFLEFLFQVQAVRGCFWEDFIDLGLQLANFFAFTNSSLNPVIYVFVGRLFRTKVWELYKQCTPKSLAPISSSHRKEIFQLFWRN
Put plainly: Calcium flux Assay (FLIPR) with human fibroblasts expressing Bradykinin B1 receptor (hB1 IMR-90). The format is cell-based. The following applies: IMR-90 human fibroblasts expressing native Bradykinin B1 receptor. Put shortly:
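IMR-90 human foetal lung fibroblasts induced with 0.35 ng/mL […] for 3 h, Fluo-4/AM-loaded, preincubated with compound (8 concentrations, triplicate) for 30 min at 28 °C, then challenged with Lys-(Des-Arg)-bradykinin at EC90. Ca2+ fluorescence was read at 538 nm; full inhibition set by 20 µM Lys-(Des-Arg-Leu)-bradykinin; IC50 derived.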
In general terms: Calcium assays in cells follow changes in intracellular calcium, usually with a dye or a luminescent sensor.

Test [2] has as its target T2, human Bradykinin B1 receptor (Homo sapiens, UniProt P46663).
T2 construct: host or cells: CHO-K1
T2 sequence (P46663 1-353): T1 sequence (P46663 1-353)
Put plainly: Calcium flux Assay (FLIPR) with recombinant CHO-K1 cells expressing human Bradykinin B1 receptor, in presence (hB1 IC50) or absence (hB1 free IC50) of 0.1% BSA. The format is cell-based.

Setting [3] is: in absence of 0.1% BSA, read-out: hB1 free IC50.
[4] abbreviates: in presence of 0.1% BSA, read-out: hB1 IC50.

Broadly, the IC50 is the point on the concentration scale where inhibition reaches its midpoint. As for `CC(C)(O)Cc1ccc(-c2ccc(NC(=O)C3(c4cccc(Cl)c4)CC3)cc2-c2nnn[nH]2)cn1` [Example 343, 1-(3-Chlorophenyl)-N-{4-[6-(2-hydroxy-2-methylpropyl)pyridin-3-yl]-3-(1H-tetrazol-5-yl)phenyl}cyctopropanecarboxamide], the IC50 was found to be 0.11 µM in test [1], 0.259 µM in test [2] (setting [3]) and 0.113 µM in test [2] (setting [4]).
As to `O=C(Nc1ccc(-c2ccnc(C(F)(F)F)c2)c(-c2nnn[nH]2)c1)C1(c2ccc(OC(F)(F)F)cc2F)CC1` [Example 295, 1-[2-fluoro-4-(trifluoromethoxy)phenyl]-N-{3-(1H-tetrazol-5-yl)-4-[2-(trifluoromethyl)pyridin-4-yl]phenyl}cyclopro-panecarboxa-mide], the IC50 was 0.0338 µM in test [1] and 0.0241 µM in test [2] (setting [3]).
In the case of `Cn1ncc2ccc(-c3ccc(NC(=O)C4(c5cccc(Cl)c5)CC4)cc3-c3nnn[nH]3)cc21` [Example 213, 1-(3-chlorophenyl)-N-[4-(1-methyl-1H-indazol-6-yl)-3-(1H-tetrazol-5-yl)phenyl] cyclopropane-carboxamide], the IC50 was determined as 0.0247 µM in test [1], 0.018 µM in test [2] (setting [3]) and 0.0632 µM in test [2] (setting [4]).
Turning to `CCOc1ccc(-c2ccc(NC(=O)C3(c4ccc(F)cc4)CC3)cc2-c2nnn[nH]2)cn1` [Example 81, N-[4-(6-ethoxypyridin-3-yl)-3-(1H-tetrazol-5-yl)phenyl]-1-(4-fluorophenyl) cyclopropane-carboxamide], the concentration for half-maximal inhibition (IC50) in test [1] worked out at 0.0212 µM; in test [2] (setting [3]), 0.0291 µM; in test [2] (setting [4]), 0.0275 µM.
For `CCOc1ccc(-c2cc(O)c(NC(=O)C3(c4cccc(Cl)c4)CC3)cc2-c2nnn[nH]2)cn1` [Example 263, 1-(3-chlorophenyl)-N-[4-(6-ethoxypyridin-3-yl)-2-hydroxy-5-(1H-tetrazol-5-yl)phenyl]cyclopro-panecarboxa-mide], the results for the IC50 in test [1], in test [2] (setting [3]) and in test [2] (setting [4]) were 0.0338 µM, 0.00772 µM and 0.0345 µM, respectively.
Regarding `CCOc1ccc(-c2ccc(NC(=O)C3(c4cccc(C(F)(F)F)c4)CC3)cc2-c2nnn[nH]2)cc1OC` [Example 120, N-[4′-ethoxy-3′-methoxy-2-(1H-tetrazol-5-yl)biphenyl-4-yl]-1-[3-(trifluoromethyl)phenyl] cyclopropane-carboxamide], the 50% inhibitory concentration (IC50) in test [1] was 0.0251 µM; in test [2] (setting [4]) it was 0.0306 µM.
Turning to `CCOc1ncc(-c2ccc(NC(=O)C3(c4cccc(Cl)c4)CC3)cc2-c2nnn[nH]2)cc1Cl` [Example 328, N-[4-(5-chloro-6-ethoxypyridin-3-yl)-3-(1H-tetrazol-5-yl)phenyl]-1-(3-chlorophenyl)cy-clopropanecarbox-amide], the values for the half-inhibitory concentration (IC50) in test [1], in test [2] (setting [3]) and in test [2] (setting [4]) were 0.127 µM, 0.0135 µM and 0.0779 µM, respectively.
Regarding `O=C(Nc1cc(F)c(-c2ccc(C(F)(F)F)nc2)c(-c2nnn[nH]2)c1)C1(c2ccc(C(F)(F)F)cc2F)CC1` [Example 242, N-{3-fluoro-5-(1H-tetrazol-5-yl)-4-[6-(trifluoromethyl)pyridin-3-yl]phenyl}-1-[2-fluoro-4-(trifluoromethyl)phenyl] cyclopropane-carboxamide], the IC50 in test [1] is 0.0228 µM; in test [2] (setting [3]) it was 0.00976 µM.
In the case of `CCOc1ccc(-c2ccc(NC(=O)C3(c4ccccc4F)CC3)cc2-c2nnn[nH]2)cn1` [Example 92, N-[4-(6-ethoxypyridin-3-yl)-3-(1H-tetrazol-5-yl)phenyl]-1-(2-fluorophenyl) cyclopropane-carboxamide], the half-maximal inhibitory concentration (IC50) amounted to 0.0253 µM in test [1], 0.0377 µM in test [2] (setting [3]) and 0.0398 µM in test [2] (setting [4]).
Take “N-[4-(6- ethoxypyridin-3- yl)-3-(1H- tetrazol-5- yl)phenyl]-1-(4- ethylphenyl) cyclopropane- carboxamide [Example 69]”: the values for the IC50 in test [1], in test [2] (setting [3]) and in test [2] (setting [4]) were 0.0162 µM, 0.00675 µM and 0.0309 µM, respectively.
With `O=C(Nc1ccc(-c2cnc(C(F)(F)F)nc2)c(-c2nnn[nH]2)c1)C1(c2ccc(C(F)(F)F)cc2F)CC1` [Example 261, 1-[2-fluoro-4-(trifluoromethyl)phenyl]-N-{3-(1H-tetrazol-5-yl)-4-[2-(trifluoromethyl)pyrimidin-5-yl]phenyl}cyclopro-panecarboxa-mide], the IC50 came out at 0.204 µM in test [1] and 0.212 µM in test [2] (setting [3]).
For the molecule `CCOc1ccc(-c2ccc(NC(=O)C3(c4cccc(Cl)c4)CC3)cc2-c2nnn[nH]2)cc1OC` [Example 119, 1-(3-chlorophenyl)-N-[4′-ethoxy-3′-methoxy-2-(1H-tetrazol-5-yl)biphenyl-4-yl]cyclopropane carboxamide], the values for the IC50 in test [1], in test [2] (setting [3]) and in test [2] (setting [4]) were 0.0131 µM, 0.00288 µM and 0.0227 µM, respectively.
The like results for `CCCOc1ccc(-c2ccc(NC(=O)C3(c4cccc(Cl)c4)CC3)cc2-c2nnn[nH]2)cn1` [Example 110, 1-(3-chlorophenyl)-N-[4-(6-propoxypyridin-3-yl)-3-(1H-tetrazol-5-yl)phenyl] cyclopropane-carboxamide] were, in that order, 0.011 µM, 0.00568 µM and 0.0127 µM.
Regarding `COc1ccc(-c2ccc(NC(=O)C3(c4ccc(Cl)c(F)c4)CC3)cc2-c2nnn[nH]2)cc1OC` [Example 16, 1-(4-chloro-3-fluorophenyl)-N-[3′,4′-dimethoxy-2-(1H-tetrazol-5-yl)biphenyl-4-yl]cyclopropane carboxamide], the values for the IC50 in test [1] and in test [2] (setting [4]) were 0.528 µM and 0.0317 µM, respectively.
Take `O=C(Nc1cc(F)c(-c2ccnc(C(F)(F)F)c2)c(-c2nnn[nH]2)c1)C1(c2ccc(C(F)(F)F)cc2F)CC1` [Example 267, N-{3-fluoro-5-(1H-tetrazol-5-yl)-4-[2-(trifluoromethyl)pyridin-4-yl]phenyl}-1-[2-fluoro-4-(trifluoromethyl)phenyl]cyclopro-panecarboxamide]: the half-maximal inhibitory concentration (IC50) in test [1] was 0.0483 µM; in test [2] (setting [3]), 0.019 µM.
The like results for `CC(F)(F)c1ccc(-c2ccc(NC(=O)C3(c4ccc(C(F)(F)F)cc4F)CC3)cc2-c2nnn[nH]2)cn1` [Example 281, N-{4-[6-(1,1-difluoroethyl)py-ridin-3-yl]-3-(1H-tetrazol-5-yl)phenyl}-1-[2-fluoro-4-(trifluoromethyl)phenyl]cyclopro-panecarboxamide] were, in that order, 0.00617 µM and 0.006 µM.
Regarding `CCOc1ccc(-c2ccc(NC(=O)C3(c4cc(F)ccc4F)CC3)cc2-c2nnn[nH]2)cn1` [Example 83, 1-(2,5-difluorophenyl)-N-[4-(6-ethoxypyridin-3-yl)-3-(1H-tetrazol-5-yl)phenyl] cyclopropane-carboxamide], the 50% inhibitory concentration (IC50) was found to be 0.033 µM in test [1], 0.0605 µM in test [2] (setting [3]) and 0.0375 µM in test [2] (setting [4]).
In the case of `Cn1ncc2ccc(-c3ccc(NC(=O)C4(c5ccc(C(F)(F)F)cc5F)CC4)cc3-c3nnn[nH]3)cc21` [Example 215, 1-[2-fluoro-4-(trifluoromethyl)phenyl]-N-[4-(1-methyl-1H-indazol-6-yl)-3-(1H-tetrazol-5-yl)phenyl] cyclopropane-carboxamide], the half-inhibitory concentration (IC50) in test [1] stood at 0.00848 µM; in test [2] (setting [3]) it was 0.00321 µM.
Regarding `Cc1cc(-c2ccc(NC(=O)C3(c4cccc(Cl)c4F)CC3)cc2-c2nnn[nH]2)ccn1` [Example 211, 1-(3-chloro-2-fluorophenyl)-N-[4-(2-methylpyridin-4-yl)-3-(1H-tetrazol-5-yl)phenyl] cyclopropane-carboxamide], the results for the IC50 in test [1], in test [2] (setting [3]) and in test [2] (setting [4]) were 0.0191 µM, 0.0105 µM and 0.0231 µM, respectively.
Consider `CCOc1ccc(-c2c(F)cc(NC(=O)C3(c4ccc(C(F)(F)F)cc4F)CC3)cc2-c2nnn[nH]2)cn1` [Example 240, N-[4-(6-ethoxypyridin-3-yl)-3-fluoro-5-(1H-tetrazol-5-yl)phenyl]-1-[2-fluoro-4-(trifluoromethyl)phenyl] cyclopropane-carboxamide], for which the half-inhibitory concentration (IC50) in test [1] came to 0.00283 µM; in test [2] (setting [3]), 0.00235 µM.
With `O=C(Nc1ccc(-c2ccc(C(F)(F)F)nc2)c(-c2nnn[nH]2)c1)C1(c2cccc(Cl)c2)CC1` [Example 135, 1-(3-chlorophenyl)-N-{3-(1H-tetrazol-5-yl)-4-[6-(trifluoromethyl)pyridin-3-yl]phenyl} cyclopropane-carboxamide], the half-inhibitory concentration (IC50) in test [1] is 0.0918 µM; in test [2] (setting [3]), 0.0587 µM; in test [2] (setting [4]) it was 0.516 µM.
For `CCc1ccc(-c2ccc(NC(=O)C3(c4cccc(Cl)c4)CC3)cc2-c2nnn[nH]2)cn1` [Example 338, 1-(3-chlorophenyl)-N-[4-(6-ethylpyridin-3-yl)-3-(1H-tetrazol-5-yl)phenyl]cyclopro-panecarboxa-mide], the IC50 in test [1] turned out to be 0.00603 µM; in test [2] (setting [3]), 0.00898 µM; in test [2] (setting [4]), 0.0204 µM.
Take `COc1ccc(-c2c(F)cc(NC(=O)C3(c4cccc(Cl)c4)CC3)cc2-c2nnn[nH]2)cc1OC` [Example 234, 1-(3-Chlorophenyl)-N-[2-fluoro-3′,4′-dimethoxy-6-(1H-tetrazol-5-yl)biphenyl-4-yl]cyclopropane carboxamide]: the IC50 in test [1] is 0.0186 µM; in test [2] (setting [3]), 0.011 µM; in test [2] (setting [4]) it was 0.0299 µM.
